Legend:
Format in all cases: biochemical
[1] = molecular target: MMP-14 (Homo sapiens, UniProt P50281); assay: Ki app for MMP-14; conditions: footnote: results are identical for MMP-1, MMP-2, MMP-3, MMP-13 and MMP-14
[2] = molecular target: MMP-13 (Homo sapiens, UniProt P45452); assay: Ki app for MMP-13; conditions: footnote: results are identical for MMP-1, MMP-2, MMP-3, MMP-13 and MMP-14
[3] = molecular target: T1, MMP-2 (Homo sapiens, UniProt P08253); assay: Determination of inhibition constant (Ki) for MMP-2, fluorogenic substrate; conditions: footnote: results are identical for MMP-1, MMP-2, MMP-3, MMP-13 and MMP-14, read-out: MMP Ki app
T1 construct: made in house; host or cells: Pichia pastoris (vector pHIL-D2; strains KM71 and SMD1168; clone 24S)
T1 sequence (P08253 110-660): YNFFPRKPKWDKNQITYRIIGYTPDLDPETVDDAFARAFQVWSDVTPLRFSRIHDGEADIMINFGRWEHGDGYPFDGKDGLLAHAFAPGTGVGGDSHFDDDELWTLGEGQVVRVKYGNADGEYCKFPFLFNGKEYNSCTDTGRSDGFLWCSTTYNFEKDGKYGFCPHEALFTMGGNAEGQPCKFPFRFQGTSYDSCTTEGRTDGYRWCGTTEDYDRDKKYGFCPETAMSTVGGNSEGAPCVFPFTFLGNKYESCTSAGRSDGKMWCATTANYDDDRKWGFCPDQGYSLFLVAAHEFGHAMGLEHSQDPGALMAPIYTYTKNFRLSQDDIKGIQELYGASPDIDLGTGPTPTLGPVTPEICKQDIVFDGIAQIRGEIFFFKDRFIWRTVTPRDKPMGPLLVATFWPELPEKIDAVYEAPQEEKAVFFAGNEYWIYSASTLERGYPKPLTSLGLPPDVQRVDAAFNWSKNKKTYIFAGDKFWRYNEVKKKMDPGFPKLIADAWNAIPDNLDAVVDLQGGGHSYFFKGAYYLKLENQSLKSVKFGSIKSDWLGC
Excerpt: Recombinant MMP-2 was purified from the fermentation broth of yeast Pichia pastoris that carries the integrated MMP-2 gene into its chromosome. In brief, the full-length cDNA for MMP-2 was obtained by reverse transcription of RNA from human melanoma A375M cell line by the reverse transcriptase polymerase chain reaction (RT-PCR) using sequence specific oligonucleotides. The nucleotide sequence was confirmed by Taq cycle sequencing. The cDNA was ligated into the Pichia pastoris expression vector pHIL-D2 in such a way that the expression of pro-MMP-2 is under the control of the methanol inducible alcohol oxidase promoter. The expression construct was digested with either SalI or NsiI and used to transform the Pichia pastoris strains KM71 and SMD1 168. A large-scale culture of a selected clone designated 24S was performed in a high cell density fermentor and the recombinant MMP-2 was purified from the culture supernatant by gelatin-sepharose 4B (Pharmacia). The enzyme is sufficiently pure at this stage for routine measurement of inhibition. If desired, however, the enzyme may be further purified by AcA 44 gel filtration (Spectra).
The active MMP-2 was obtained by activation of proMMP-2 at 37° C. for 1 h with 4-aminophenylmercuric acetate which was then removed by a Sephadex G-50 spin column. The enzyme is assayed using a fluorogenic substrate, Mca-Pro-Leu-Gly-Leu-Dpa-Ala-Arg-NH2, at 37° C. in 2.0 mL of assay buffer containing 50 mM Tris, pH 7.6, 0.2 M sodium chloride, 50 mM calcium chloride, 0.02% Brij-35, and 50 μM β-mercaptoethanol. The increase in fluorescence is monitored (λex 328 nm, λem 393 nm). Substrate and inhibitor stock solutions are made in DMF. The enzyme is added at the last to start the reaction. For routine measurement of a Ki value for a reversible, competitive inhibitor, the initial rates in the presence of at least four inhibitor concentrations (two inhibitor concentrations above Ki and two below Ki) are measured using [S]=1 μM (<<Km) and [MMP-2]=0.4 nM. Under these conditions, the measured Ki, app is close to true Ki.

| SMILES | Ki [1] [µM] | Ki [2] [µM] | Ki [3] [µM] |
| --- | --- | --- | --- |
| CNC(=O)[C@H](Cc1cccnc1)NC(=O)[C@@H]1[C@H](Cc2ccccc2)CCN1C(=O)[C@@H](S)C(C)C [Compound 1d, (2S,3R)-3-Benzyl-1-((S)-2-mercapto-3-methyl-butanoyl)-pyrrolidine-2-carboxylic acid ((S)-1-methylcarbamoyl-2-pyridin-3-yl-ethyl)-amide] | > 10 | > 10 | > 10 |
| CNC(=O)[C@@H](Cc1cccnc1)NC(=O)[C@@H]1C(Cc2ccccc2)CCN1C(=O)[C@@H](S)C(C)C (stereo in doubt) [Compound 1f, (2S,3S)-3-Benzyl-1-((S)-2-mercapto-3-methyl-butanoyl)-pyrrolidine-2-carboxylic acid ((R)-1-methylcarbamoyl-2-pyridin-3-yl-ethyl)-amide] | > 10 | > 10 | > 10 |
| CNC(=O)[C@H](Cc1ccc(O)cc1)NC(=O)[C@@H]1[C@@H](Cc2ccccc2)CCN1C(=O)[C@@H](S)C(C)C [Compound 1a, (2S,3S)-3-Benzyl-1-((S)-2-mercapto-3-methyl-butanoyl)-pyrrolidine-2-carboxylic acid [(S)-2-(4-hydroxy-phenyl)-1-methylcarbamoyl-ethyl]-amide] | > 10 | > 10 | > 10 |
| CNC(=O)[C@H](Cc1ccc(O)cc1)NC(=O)[C@@H]1[C@H](Cc2ccccc2)CCN1C(=O)[C@@H](S)C(C)C [Compound 1b, (2S,3R)-3-Benzyl-1-((S)-2-mercapto-3-methyl-butanoyl)-pyrrolidine-2-carboxylic acid [(S)-2-(4-hydroxy-phenyl)-1-methylcarbamoyl-ethyl]-amide] | > 10 | > 10 | > 10 |

Next, values leading:

| Ki [1] [µM] | Ki [2] [µM] | Ki [3] [µM] | SMILES |
| --- | --- | --- | --- |
| > 10 | > 10 | > 10 | CNC(=O)[C@@H](Cc1cccnc1)NC(=O)[C@@H]1[C@@H](Cc2ccccc2)CCN1C(=O)[C@@H](S)C(C)C [Compound 1e, (2S,3S)-3-Benzyl-1-((S)-2-mercapto-3-methyl-butanoyl)-pyrrolidine-2-carboxylic acid ((R)-1-methylcarbamoyl-2-pyridin-3-yl-ethyl)-amide] |
| > 10 | > 10 | > 10 | CNC(=O)[C@@H](NC(=O)[C@@H]1[C@H](Cc2ccccc2)CCN1C(=O)[C@@H](S)C(C)C)C(C)(C)C [Compound 1h, (2S,3R)-3-Benzyl-1-((S)-2-mercapto-3-methyl-butanoyl)-pyrrolidine-2-carboxylic acid ((S)-2,2-dimethyl-1-methylcarbamoyl-propyl)-amide] |
| > 10 | > 10 | > 10 | CNC(=O)[C@H](Cc1cccnc1)NC(=O)[C@@H]1[C@@H](Cc2ccccc2)CCN1C(=O)[C@@H](S)C(C)C [Compound 1c, (2S,3S)-3-Benzyl-1-((S)-2-mercapto-3-methyl-butanoyl)-pyrrolidine-2-carboxylic acid ((S)-1-methylcarbamoyl-2-pyridin-3-yl-ethyl)-amide] |
| > 10 | > 10 | > 10 | CNC(=O)[C@@H](NC(=O)[C@@H]1[C@@H](Cc2ccccc2)CCN1C(=O)[C@@H](S)C(C)C)C(C)(C)C [Compound 1g, (2S,3S)-3-Benzyl-1-((S)-2-mercapto-3-methyl-butanoyl)-pyrrolidine-2-carboxylic acid ((S)-2,2-dimethyl-1-methylcarbamoyl-propyl)-amide] |
